Experimental data published in article PMC7655065, “Effect of 3-subsitution of quinolinehydroxamic acids on selectivity of histone deacetylase isoforms” (Journal of Enzyme Inhibition and Medicinal Chemistry, 2020).
Read-outs that look alike come from different tables or passages of the source.

Legend:
[1] = system: A549 cells; assay: Flow cytometry cell cycle analysis; assay type: cell-based, human; settings: A549 cells, 0.25, 0.5, 10 μM, 48 h, propidium iodide
Experimental: Briefly, A549 cells were starved with EBM-2 medium overnight and were subsequently replenished with EGM-2 medium with or without 17, 25, and 26 (0.25, 0.5, 10 µM) for 48 h. After being trypsinized and fixed in ice-cold 75% MeOH for 1 h at −20 °C, A549 cells were washed with PBS and resuspended in 0.2 ml DNA extraction buffer (0.2 M Na2HPO4, 0.1 M citric acid; pH 7.8) for 30 min. Then the cells were stained with propidium iodide solution (PI; 100 µg/ml RNase, 80 µg/ml propidium iodide, 0.1% Triton X-100) in PBS. FACScan flow cytometry was utilised to determine cell cycle distribution, and data analysis was performed with CellQuest software (BD Biosciences).

[2] = biological target: T1, HDAC6 (Homo sapiens, UniProt Q9UBN7); assay: HDAC biochemical assay (Fluor-de-Lys), HDAC6; settings: human recombinant HDAC6
T1 construct: EurofinPanlabs (Taipei, Taiwan)
T1 sequence (Q9UBN7 1-1215): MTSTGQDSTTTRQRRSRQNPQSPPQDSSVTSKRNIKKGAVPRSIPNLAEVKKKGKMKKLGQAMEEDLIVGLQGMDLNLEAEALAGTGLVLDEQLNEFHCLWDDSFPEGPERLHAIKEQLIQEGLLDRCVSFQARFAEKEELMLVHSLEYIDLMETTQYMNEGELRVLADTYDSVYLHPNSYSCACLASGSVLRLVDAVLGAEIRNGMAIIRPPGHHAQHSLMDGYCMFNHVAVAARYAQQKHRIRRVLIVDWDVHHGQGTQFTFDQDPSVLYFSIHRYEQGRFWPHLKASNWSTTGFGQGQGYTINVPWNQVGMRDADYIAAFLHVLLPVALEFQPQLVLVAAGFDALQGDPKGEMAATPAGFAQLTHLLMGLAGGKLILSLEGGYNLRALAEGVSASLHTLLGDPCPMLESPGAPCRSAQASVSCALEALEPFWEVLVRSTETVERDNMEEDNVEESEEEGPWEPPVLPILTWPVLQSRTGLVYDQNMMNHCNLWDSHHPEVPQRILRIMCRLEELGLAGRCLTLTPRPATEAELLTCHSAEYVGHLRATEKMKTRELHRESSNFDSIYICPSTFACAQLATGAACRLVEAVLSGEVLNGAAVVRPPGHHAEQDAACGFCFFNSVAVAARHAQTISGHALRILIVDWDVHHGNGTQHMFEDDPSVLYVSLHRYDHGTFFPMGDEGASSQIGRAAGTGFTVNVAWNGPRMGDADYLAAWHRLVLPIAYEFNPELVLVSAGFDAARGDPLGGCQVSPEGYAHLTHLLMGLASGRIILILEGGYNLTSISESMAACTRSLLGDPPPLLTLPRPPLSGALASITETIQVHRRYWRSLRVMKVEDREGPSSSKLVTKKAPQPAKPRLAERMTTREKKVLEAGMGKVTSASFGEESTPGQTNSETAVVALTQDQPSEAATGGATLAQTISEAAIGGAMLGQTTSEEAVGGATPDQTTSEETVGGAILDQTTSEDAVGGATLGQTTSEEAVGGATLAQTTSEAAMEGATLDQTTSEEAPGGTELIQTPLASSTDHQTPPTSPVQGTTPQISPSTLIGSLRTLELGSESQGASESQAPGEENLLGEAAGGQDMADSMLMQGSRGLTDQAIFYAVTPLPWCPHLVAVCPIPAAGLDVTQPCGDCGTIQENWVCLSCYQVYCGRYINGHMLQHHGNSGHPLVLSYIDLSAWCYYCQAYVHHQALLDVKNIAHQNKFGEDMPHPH

[3] = biological target: T2, HDAC1 (Homo sapiens, UniProt Q13547); assay: HDAC biochemical assay (Fluor-de-Lys), HDAC1; settings: for Selectivity ratio of HDAC1 over HDAC6: IC50 HDAC1 / IC50 HDAC6; for IC50: human recombinant HDAC1, values > 10 μM estimated from best curve fitting
T2 construct: EurofinPanlabs (Taipei, Taiwan)
T2 sequence (Q13547 whole entry): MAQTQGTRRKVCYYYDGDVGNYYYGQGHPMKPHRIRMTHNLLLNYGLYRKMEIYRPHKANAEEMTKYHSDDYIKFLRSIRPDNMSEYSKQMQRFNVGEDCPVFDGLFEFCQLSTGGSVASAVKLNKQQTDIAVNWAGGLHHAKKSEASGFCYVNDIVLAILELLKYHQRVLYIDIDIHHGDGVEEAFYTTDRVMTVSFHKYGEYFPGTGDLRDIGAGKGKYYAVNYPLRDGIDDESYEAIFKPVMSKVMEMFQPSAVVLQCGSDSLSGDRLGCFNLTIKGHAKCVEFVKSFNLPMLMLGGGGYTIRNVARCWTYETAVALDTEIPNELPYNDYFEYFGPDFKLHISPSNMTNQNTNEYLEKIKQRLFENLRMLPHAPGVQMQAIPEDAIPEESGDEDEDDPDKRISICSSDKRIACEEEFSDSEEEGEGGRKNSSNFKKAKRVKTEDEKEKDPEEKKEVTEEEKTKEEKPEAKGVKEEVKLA

[4] = system: A549 cells; assay: Sulforhodamine B antiproliferative assay, A549; assay type: cell-based; settings: Homo sapiens
Experimental: (§1) All human cancer cells were maintained in RPMI 1640 medium supplemented with 10% FBS and penicillin (100 units/ml)/streptomycin (100 µg/ml)/amphotericin B (0.25 µg/ml). All cells were maintained in humidified air containing 5% CO2 at 37 °C and cultured every 2–3 days. […]
(§2) Cells were seeded at the density of 5000 cells/well into 96-plate overnight. Basal cells were fixed with 10% trichloroacetic acid (TCA) to represent the cell population at the time of compound addition (T0). After additional incubation of DMSO (C) or different doses of test compounds (Tx) for 48 h, cells were fixed with 10% TCA and stained with SRB at 0.4% (w/v) in 1% AcOH. Unbound SRB was washed out using 1% AcOH and SRB bound cells were solubilised with 10 mM Trizma base. The absorbance was read at a wavelength of 515 nm. The 50% growth inhibition (GI50) was calculated by 100 − [(Tx – T0)/(C – T0)] × 100.

[5] = system: HCT116 cells; assay: Sulforhodamine B antiproliferative assay, HCT116; assay type: cell-based; settings: Homo sapiens, HCT-116, SRB, 48 h, values > 10 μM estimated from best curve fitting
Experimental: as §1, §2

[6] = system: A549 cells; assay: Western blot analysis of apoptosis and DNA damage markers; assay type: cell-based, human
Experimental: buffer (20 mMTris-HCl pH 7.5, 150 mM NaCl, 1 mM Na2EDTA, 1 mM EGTA, 1% NP-40, 1% sodium deoxycholate, 0.1% SDS, 2.5 mM β-glycerylphosphate, 1 mM Na4P2O7, 5 mM NaF, 1 mM Na3VO4 and protease inhibitor cocktail from Millipore) on ice for 30 min following by centrifugation at 13000 rpm for 30 min. Protein concentrations were determined and equal amounts of protein were separated by 8–15% sodium dodecyl sulphate-polyacrylamide gel electrophoresis (SDS–PAGE) and transferred to poly(vinylidene difluoride) (PVDF) membranes. Membranes were immunoblotted with specific antibodies overnight at 4 °C and then applied to appropriate horseradish peroxidase-conjugated anti-mouse or anti-rabbit IgG secondary antibodies for 1 h at RT. Signals were detected using an enhanced chemiluminescence (Amersham, Buckinghamshire, UK).

[7] = biological target: T3, HDAC2 (Homo sapiens, UniProt Q92769); assay: HDAC biochemical assay (Fluor-de-Lys), HDAC2; settings: for Selectivity ratio of HDAC2 over HDAC6: IC50 HDAC2 / IC50 HDAC6; for IC50: human recombinant HDAC2, dash = no inhibition or activity that could not be fitted to an IC50 curve
T3 construct: EurofinPanlabs (Taipei, Taiwan)
T3 sequence (Q92769 whole entry): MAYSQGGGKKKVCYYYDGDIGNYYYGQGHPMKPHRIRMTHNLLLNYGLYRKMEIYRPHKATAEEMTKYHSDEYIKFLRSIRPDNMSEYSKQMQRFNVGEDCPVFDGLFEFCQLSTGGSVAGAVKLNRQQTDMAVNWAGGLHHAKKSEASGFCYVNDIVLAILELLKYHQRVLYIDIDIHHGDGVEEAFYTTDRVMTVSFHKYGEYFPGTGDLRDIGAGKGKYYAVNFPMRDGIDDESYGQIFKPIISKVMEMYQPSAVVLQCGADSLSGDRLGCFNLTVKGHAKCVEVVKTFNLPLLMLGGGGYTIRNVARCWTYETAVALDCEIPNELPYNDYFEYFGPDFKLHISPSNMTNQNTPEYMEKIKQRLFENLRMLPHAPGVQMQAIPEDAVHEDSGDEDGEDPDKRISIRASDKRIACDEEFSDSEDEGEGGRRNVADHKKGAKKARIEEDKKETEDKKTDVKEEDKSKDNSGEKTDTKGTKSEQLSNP

[8] = biological target: T4, HDAC8 (Homo sapiens, UniProt Q9BY41); assay: HDAC biochemical assay (Fluor-de-Lys), HDAC8; settings: for Selectivity ratio of HDAC8 over HDAC6: IC50 HDAC8 / IC50 HDAC6; for IC50: human recombinant HDAC8
T4 construct: EurofinPanlabs (Taipei, Taiwan)
T4 sequence (Q9BY41 1-377): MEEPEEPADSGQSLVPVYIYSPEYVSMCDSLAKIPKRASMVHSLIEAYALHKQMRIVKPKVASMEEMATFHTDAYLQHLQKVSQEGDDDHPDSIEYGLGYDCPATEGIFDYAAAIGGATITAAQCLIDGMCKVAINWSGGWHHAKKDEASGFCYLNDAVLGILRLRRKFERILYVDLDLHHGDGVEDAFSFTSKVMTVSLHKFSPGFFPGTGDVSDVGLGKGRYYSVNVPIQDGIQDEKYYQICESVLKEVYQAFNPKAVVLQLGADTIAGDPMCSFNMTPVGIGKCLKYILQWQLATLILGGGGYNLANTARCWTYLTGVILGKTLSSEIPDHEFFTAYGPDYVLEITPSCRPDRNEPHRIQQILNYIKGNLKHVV

[9] = A549 cells, SRB, 48 h, values > 10 μM estimated from best curve fitting, read-out: Antiproliferative activity IC50, A549

Row | Structure (SMILES) | Cell cycle distribution, sub G1 population [1] | IC50 [2] [µM] | Selectivity ratio of HDAC1 over HDAC6 [3] | IC50 [3] [µM] | IC50 [4, 9] [µM] | IC50 ([4]; range over both cell lines (A549 and HCT116) and both compounds, abstract, read-out: IC50 values against A549 and HCT116 cells) [µM] | IC50 [5] [µM] | Caspase 3, 8, and 9 cleavage (Western blot) ([6]; A549 cells treated for 48 h, 0.25, 5 and 10 µM) | Selectivity ratio of HDAC2 over HDAC6 [7] | IC50 [7] [µM] | Selectivity ratio of HDAC8 over HDAC6 [8] | IC50 [8] [µM] | Rank of efficacy in cleaving caspase isoforms (Western blot) ([6]; A549 cells, 48 h, comparison among the three tested compounds)
1 | O=C(NO)c1ccc(CNc2cccc3cc(-c4ccncc4)cnc23)cc1 [Compound 26, N-Hydroxy-4-(((3-(pyridin-4-yl)quinolin-8-yl)amino)methyl)benzamide] | concentration dependent accumulation of A549 cells in sub G1 phase | 0.00861 | (596) | 5.13 | 2.13 ± 0.13 | 1.29 to 2.13 | 2.03 ± 0.46 | dose dependent increases in caspase 3, 8, and 9 cleavage | (336) | 2.89 | (273) | 2.35 | –
2 | O=C(NO)c1ccc(CNc2cccc3cc(Br)cnc23)cc1 [Compound 15, 4-[(3-Bromo-quinolin-8-ylamino)-methyl]-N-hydroxy-benzamide] | – | – | – | – | > 10 | – | > 10 | – | – | – | – | – | –
3 | N#Cc1ccccc1-c1cnc2c(NCc3ccc(C(=O)NO)cc3)cccc2c1 [Compound 21, 4-(((3–(2-Cyanophenyl)quinolin-8-yl)amino)methyl)-N-hydroxybenzamide amide] | – | – | – | – | 8.65 ± 2.35 | – | 6 ± 1.56 | – | – | – | – | – | –
4 | COc1cnc2c(NCc3ccc(C(=O)NO)cc3)cccc2c1 [Compound 17, N-Hydroxy-4-[(3-methoxy-quinolin-8-ylamino)-methyl]-benzamide] | – | 0.00779 | – | 4.95 | 3.11 ± 0.24 | – | 4.76 ± 0.43 | – | – | > 10 | – | 2.76 | least potent amongst these three compounds
5 | O=C(NO)c1ccc(CNc2cccc3cc(-c4ccco4)cnc23)cc1 [Compound 27, 4-(((3-(Furan-2-yl)quinolin-8-yl)amino)methyl)-N-hydroxybenzamide] | – | 0.0207 | (164) | 3.4 | 3.18 ± 0.19 | – | 2.2 ± 0.17 | – | (62) | 1.28 | (152) | 3.14 | –
6 | COc1ccc(-c2cnc3c(NCc4ccc(C(=O)NO)cc4)cccc3c2)cc1 [Compound 20, N-Hydroxy-4-(((3–(4-methoxyphenyl)quinolin-8-yl)amino)methyl)benzamide] | – | – | – | – | 9.1 ± 0.3 | – | > 10 | – | – | – | – | – | –
7 | N#Cc1cccc(-c2cnc3c(NCc4ccc(C(=O)NO)cc4)cccc3c2)c1 [Compound 22, 4-(((3–(3-Cyanophenyl)quinolin-8-yl)amino)methyl)-N-hydroxybenzamide] | – | 0.0362 | (252) | 9.11 | 2.04 ± 0.35 | – | 3.18 ± 0.16 | – | (55) | 1.98 | (106) | 3.83 | –
8 | N#Cc1ccc(-c2cnc3c(NCc4ccc(C(=O)NO)cc4)cccc3c2)cc1 [Compound 23, 4-(((3–(4-Cyanophenyl)quinolin-8-yl)amino)methyl)-N-hydroxybenzamide] | – | – | – | – | 3.64 ± 0.66 | – | 3.5 ± 0.32 | – | – | – | – | – | –
9 | O=C(NO)c1ccc(CNc2cccc3cc(-c4ccsc4)cnc23)cc1 [Compound 29, N-Hydroxy-4-(((3-(thiophen-3-yl)quinolin-8-yl)amino)methyl)benzamide] | – | 0.0301 | (199) | 6 | 3.84 ± 0.4 | – | 3.59 ± 0.51 | – | (117) | 3.52 | (164) | 4.93 | –
10 | O=C(NO)c1ccc(CNc2cccc3cc(Cl)cnc23)cc1 [Compound 14, 4-[(3-Chloro-quinolin-8-ylamino)-methyl]-N-hydroxy-benzamide] | – | 0.0202 | – | 4.32 | 3.14 ± 0.31 | – | 4.82 ± 0.29 | – | – | – | – | 3.64 | –
11 | O=C(NO)c1ccc(CNc2cccc3cc(-c4ccoc4)cnc23)cc1 [Compound 28, 4-(((3-(Furan-3-yl)quinolin-8-yl)amino)methyl)-N-hydroxybenzamide] | – | 0.0134 | (343) | 4.59 | 3.77 ± 0.28 | – | 3.77 ± 0.21 | – | (157) | 2.1 | (216) | 2.91 | –
12 | O=C(NO)c1ccc(CNc2cccc3cc(I)cnc23)cc1 [Compound 16, N-Hydroxy-4-[(3-iodo-quinolin-8-ylamino)-methyl]-benzamide] | – | – | – | – | 3.41 ± 0.9 | – | 4.79 ± 0.47 | – | – | – | – | – | –
13 | COc1ccccc1-c1cnc2c(NCc3ccc(C(=O)NO)cc3)cccc2c1 [Compound 19, N-Hydroxy-4-(((3–(2-methoxyphenyl)quinolin-8-yl)amino)methyl)benzamide] | – | – | – | – | > 10 | – | 7.19 ± 0.77 | – | – | – | – | – | –
14 | O=C(NO)c1ccc(CNc2cccc3cc(-c4cccc([N+](=O)[O-])c4)cnc23)cc1 [Compound 24, N-Hydroxy-4-(((3–(3-nitrophenyl)quinolin-8-yl)amino)methyl)benzamide] | – | – | – | – | 4.05 ± 0.42 | – | 2.88 ± 0.21 | – | – | – | – | – | –
